Laboratory results published in US20070128217A1 (priority 2003, published 2007).

Legend:
[1] = system: antibodies in sera from SARS patients (sera 1a, 1b, 2, 6, 37, 62, London, SARS-yellow, SARS-green); format: binding, human; set-up: Binding of serum 6 to linear peptides of protein X1 of SARS-CoV Urbani / Binding of serum 37 to linear peptides of protein X1 of SARS-CoV Urbani / Binding of serum 6 to looped/cyclic peptide (PEPSCAN-ELISA) / Binding of serum 37 to looped/cyclic peptide (PEPSCAN-ELISA) / Binding of serum 37 to looped/cyclic peptides of protein X1 of SARS-CoV Urbani / Binding of serum 6 to linear peptides of protein X2 / Binding of serum 37 to linear peptides of protein X2 / Binding of serum 37 to looped/cyclic peptides of protein X2 of SARS-CoV Urbani / Binding of serum 6 to linear peptides of protein M of SARS-CoV Urbani / Binding of serum 37 to linear peptides of protein M of SARS-CoV Urbani / Binding of serum 6 to looped/cyclic peptides of protein M of SARS-CoV Urbani / Binding of serum 37 to looped/cyclic peptides of protein M of SARS-CoV Urbani / Binding of serum 6 to linear peptides of protein X3 of SARS-CoV Urbani / Binding of serum 37 to linear peptides of protein X3 of SARS-CoV Urbani / Binding of serum 37 to looped/cyclic peptides of protein X3 of SARS-CoV Urbani / Binding of serum 6 to linear peptides of protein X4 of SARS-CoV Urbani / Binding of serum 37 to linear peptides of protein X4 of SARS-CoV Urbani / Binding of serum 37 to looped/cyclic peptides of protein X4 of SARS-CoV Urbani / Binding of serum 6 to linear peptides of protein X5 of SARS-CoV Urbani / Binding of serum 37 to linear peptides of protein X5 of SARS-CoV Urbani / Binding of serum 37 to looped/cyclic peptides of protein X5 of SARS-CoV Urbani / Binding of serum 6 to linear peptides of protein N of SARS-CoV Urbani / Binding of serum 37 to linear peptides of protein N of SARS-CoV Urbani / Binding of serum 6 to linear peptide (PEPSCAN-ELISA) / Binding of serum 1a to looped/cyclic peptides of protein N of SARS-CoV Urbani / Binding of serum 1b to looped/cyclic peptides of protein N of SARS-CoV Urbani / Binding of serum 2 to looped/cyclic peptides of protein N of SARS-CoV Urbani / Binding of serum 6 to looped/cyclic peptides of protein N of SARS-CoV Urbani / Binding of serum 37 to looped/cyclic peptides of protein N of SARS-CoV Urbani / Binding of serum 62 to looped/cyclic peptides of protein N of SARS-CoV Urbani / Binding of serum London to looped/cyclic peptides of protein N of SARS-CoV Urbani / Binding of serum SARS-green to looped/cyclic peptides of protein N of SARS-CoV Urbani: unit not given here
[2] = system: control sera (pooled serum of ten healthy LUMC hospital workers; commercial negative donor pooled serum from the Dutch bloodbank); format: binding, human; set-up: Binding of Control serum LUMC to linear peptides / Binding of Control serum Blood-bank to linear peptides / Binding of Control serum LUMC to looped peptides / Binding of Control Serum Blood-Bank to Looped peptides / Binding of Control serum LUMC to linear peptides of the protein M of SARS-CoV Urbani / Binding of Control serum Blood-bank to linear peptides of the protein M of SARS-CoV Urbani / Binding of Control serum LUMC to looped peptides of the protein M of SARS-CoV Urbani / Binding of Control Serum Blood-Bank to Looped peptides of the protein M of SARS-CoV Urbani: unit not given here
[3] = system: rabbit serum obtained by immunizing a rabbit with the SARS-CoV strain Frankfurt 1; format: binding; set-up: Binding of a rabbit serum to linear peptides / Binding of a rabbit serum to looped peptides / Rabbit serum linear peptides / Rabbit serum looped peptides / Binding of a rabbit serum to linear peptides of protein N of SARS-CoV Urbani (Rabbit serum linear peptides) / Binding of a rabbit serum to looped/cyclic peptides of protein N of SARS-CoV Urbani (Rabbit serum looped peptides): unit not given here

Row | Sequence | Binding of serum 1a to linear peptides of protein X1 of SARS-CoV Urbani [1] | Binding of serum 1a to looped/cyclic peptides of protein X1 of SARS-CoV Urbani [1] | Binding of serum 1b to linear peptides of protein X1 of SARS-CoV Urbani [1] | Binding of serum 1b to looped/cyclic peptides of protein X1 of SARS-CoV Urbani [1] | Binding of serum 2 to linear peptides of protein X1 of SARS-CoV Urbani [1] | Binding of serum 2 to looped/cyclic peptides of protein X1 of SARS-CoV Urbani [1] | Binding of serum 6 to linear peptides of protein X1 of SARS-CoV Urbani [1] | Binding of serum 6 to looped/cyclic peptides of protein X1 of SARS-CoV Urbani [1] | Binding of serum 37 to linear peptides of protein X1 of SARS-CoV Urbani [1] | Binding of serum 37 to looped/cyclic peptides of protein X1 of SARS-CoV Urbani [1] | Binding of serum 62 to linear peptides of protein X1 of SARS-CoV Urbani [1] | Binding of serum 62 to looped/cyclic peptides of protein X1 of SARS-CoV Urbani [1] | Binding of serum London to linear peptides of protein X1 of SARS-CoV Urbani [1] | Binding of serum London to looped/cyclic peptides of protein X1 of SARS-CoV Urbani [1] | Binding of serum SARS-green to linear peptides of protein X1 of SARS-CoV Urbani [1] | Binding of serum SARS-green to looped/cyclic peptides of protein X1 of SARS-CoV Urbani [1] | Binding of serum SARS-yellow to linear peptides of protein X1 of SARS-CoV Urbani [1] | Binding of serum SARS-yellow to looped/cyclic peptides of protein X1 of SARS-CoV Urbani [1] | Binding of Control Serum Blood-Bank to Looped peptides [2] | Binding of Control serum Blood-bank to linear peptides [2] | other results
1 | IENATFFIFNKLVKD | 0.6 | 0.5 | 0.5 | 0.4 | 0.5 | 0.4 | 0.3 | 0.2 | 0.5 | 0.5 | 0.5 | 0.5 | 0.2 | 0.2 | 0.2 | 0.1 | 0.4 | 0.3 | 0.5 | 0.4 | Binding of Control serum LUMC to linear peptides [2]: 0.3; Binding of Control serum LUMC to looped peptides [2]: 0.5; Binding of a rabbit serum to linear peptides [3]: 0.1; Binding of a rabbit serum to looped peptides [3]: 0.5
2 | TDTGIENATFFIFNK | 0.7 | 0.5 | 0.4 | 0.5 | 0.5 | 0.5 | 0.7 | 0.5 | 0.6 | 0.7 | 0.5 | 0.7 | 0.3 | 0.3 | 0.5 | 0.4 | 0.0 | 0.5 | 0.8 | 0.6 | Binding of Control serum LUMC to linear peptides [2]: 0.4; Binding of Control serum LUMC to looped peptides [2]: 0.6; Binding of a rabbit serum to linear peptides [3]: 0.1; Binding of a rabbit serum to looped peptides [3]: 0.6
